According to patent US11440909B2, “10H-phenothiazine ferroptosis inhibitor as well as the preparative method and the use thereof” (CHENGDU HENGHAO INVESTMENT CO. LIMITED, priority 2018, dated 2022):
pEC50: −log10 of the molar value. Like-named read-outs stand apart in the source and are kept apart here.

Test system: fibrosarcoma cell line HT1080
Test: Ferroptosis screening model (MTT method), Erastin-induced ferroptosis
Type: cell-based, human
Details: HT1080, ferroptosis inducer Erastin, 72 h, average of three tests, read-out: EC50
Summary of the method: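 HT1080 cells adhered 24 h, then received compound plus Erastin ([…] final) for 72 h at 37 °C, 5% CO2, in triplicate. Viability by MTT with SDS solubilisation, absorbance at 570 nm; inhibition of ferroptosis fitted to give EC50.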

SMILES | pEC50 (Homo sapiens, HT-1080, 72 h) | pEC50
CC(c1ccc2c(c1)Nc1ccccc1S2)S(=O)(=O)N1CCN(CCCN(C)C)CC1 (stereo not shown) [Compound C7, 3-(4-((1-(10H-phenothiazin-2-yl)ethyl)sulfonyl)piperazin-1-yl)-N,N-dimethylpropan-1-amine] | 7.34 | –
CC(c1ccc2c(c1)Nc1ccccc1S2)S(=O)(=O)N1C2CCC1CC(O)C2 (stereo not shown) [Compound C8, 8-((1-(10H-phenothiazin-2-yl)ethyl)sulfonyl)-8-azabicyclo[3.2.1]-3-octanol] | 7.34 | –
CCN1CCN(S(=O)(=O)C(C)c2ccc3c(c2)Nc2ccccc2S3)CC1 (stereo not shown) [Compound C10, 2-(1-((4-ethylpiperazin-1-yl)sulfonyl)ethyl)-10H-phenothiazine] | 7.77 | –
CC(c1ccc2c(c1)Nc1ccccc1S2)S(=O)(=O)N1CCN(C(=O)C2CCCO2)CC1 (stereo not shown) [Compound C11, (4-((1-(10H-phenothiazin-2-yl)ethyl)sulfonyl)piperazin-1-yl)(tetrahydrofuran-2-yl)ketone] | 6.57 | –
CC(c1ccc2c(c1)Nc1ccccc1S2)S(=O)(=O)N1CCC(O)CC1 (stereo not shown) [Compound C18, 1-((1-(10H-phenothiazin-2-yl)ethyl)sulfonyl)-4-piperidinol] | 7.10 | –
CC(c1ccc2c(c1)Nc1ccccc1S2)S(=O)(=O)N1CCCC1 (stereo not shown) [Compound C21] | 6.59 | –
COc1ccccc1N1CCN(S(=O)(=O)C(C)c2ccc3c(c2)Nc2ccccc2S3)CC1 (stereo not shown) [Compound C22, 2-(1-((4-(2-methoxylphenyl)piperazin-1-yl)sulfonyl)ethyl)-10H-phenothiazine] | – | 6.14
CC(c1ccc2c(c1)Nc1ccccc1S2)S(=O)(=O)N1CCN(c2ccccc2)CC1 (stereo not shown) [Compound C24, 2-(1-((4-phenylpiperazin-1-yl)sulfonyl)ethyl)-10H-phenothiazine] | – | 6.38
CC(=O)N1CCCN(S(=O)(=O)C(C)c2ccc3c(c2)Nc2ccccc2S3)CC1 (stereo not shown) [Compound C25, 1-(4-((1-(10H-phenothiazin-2-yl)ethyl)sulfonyl)-1,4-homopiperazin-1-yl)-1-ethanone] | 6.39 | –
CC(c1ccc2c(c1)Nc1ccccc1S2)S(=O)(=O)N1CCN(C(c2ccccc2)c2ccccc2)CC1 (stereo not shown) [Compound C26, 2-(1-((4-diphenylmethylpiperazin-1-yl)sulfonyl)ethyl)-10H-phenothiazine] | 6.41 | –
CC(c1ccc2c(c1)Nc1ccccc1S2)S(=O)(=O)N1CCN(c2ccccc2)CC1 (stereo not shown) [Compound C28, 2-(1-((4-phenylpiperazin-1-yl)sulfonyl)ethyl)-10H-phenothiazine] | – | 6.85
CC(c1ccc2c(c1)Nc1ccccc1S2)S(=O)(=O)N1CCC[C@H](NC(=O)OC(C)(C)C)C1 (stereo partly drawn) [Compound C29, t-butyl ((3S)-1-((1-(10H-phenothiazin-2-yl)ethyl)sulfonyl)piperidin-3-yl) carbamate] | 6.64 | –
CC(c1ccc2c(c1)Nc1ccccc1S2)S(=O)(=O)N1CCN(c2ccc(F)cc2)CC1 (stereo not shown) [Compound C34, 2-(1-((4-(4-fluorophenyl)piperazin-1-yl)sulfonyl)ethyl)-10H-phenothiazine] | 6.63 | –
CC(c1ccc2c(c1)Nc1ccccc1S2)S(=O)(=O)N1CCCC(CNC(=O)OC(C)(C)C)C1 (stereo not shown) [Compound C35, t-butyl ((1-((1-(10H-phenothiazin-2-yl)ethyl)sulfonyl)piperidin-3-yl)methyl)carbamate] | 6.47 | –
CC(c1ccc2c(c1)Nc1ccccc1S2)S(=O)(=O)N1CCN(Cc2ccc(Cl)cc2)CC1 (stereo not shown) [Compound C36, 2-(1-((4-(4-chlorobenzyl)piperazin-1-yl)sulfonyl)ethyl)-10H-phenothiazine] | 6.89 | –
CC(c1ccc2c(c1)Nc1ccccc1S2)S(=O)(=O)N1CCC[C@@H]1C (stereo partly shown) [Compound C42] | 6.47 | –
CC1CCN(S(=O)(=O)C(C)c2ccc3c(c2)Nc2ccccc2S3)CC1 (stereo not shown) [Compound C45, 2-(1-((4-methylpiperidin-1-yl)sulfonyl)ethyl)-10H-phenothiazine] | 6.65 | –
CC1CCCN(S(=O)(=O)C(C)c2ccc3c(c2)Nc2ccccc2S3)C1 (stereo not shown) [Compound C46, 2-(1-((3-methylpiperidin-1-yl)sulfonyl)ethyl)-10H-phenothiazine] | 6.81 | –

Second part, the compound after the results:

pEC50 (Homo sapiens, HT-1080, 72 h) | pEC50 | SMILES
6.73 | – | CC(c1ccc2c(c1)Nc1ccccc1S2)S(=O)(=O)N1CCN(CC(=O)N2CCCC2)CC1 (stereo not shown) [Compound C6, 2-(4-((1-(10H-phenothiazin-2-yl)ethyl)sulfonyl)piperazin-1-yl)-1-(pyrrolin-1-yl)-1-ethanone]
7.07 | – | CC(c1ccc2c(c1)Nc1ccccc1S2)S(=O)(=O)N1CCN(CCc2ccccc2)CC1 (stereo not shown) [Compound C9, 2-(1-((4-phenethylpiperazin-1-yl)sulfonyl)ethyl)-10H-phenothiazine]
7.12 | – | CC(c1ccc2c(c1)Nc1ccccc1S2)S(=O)(=O)N1CCN(CCN2CCOCC2)CC1 (stereo not shown) [Compound C12, 4-(2-(4-((1-(10H-phenothiazin-2-yl)ethyl)sulfonyl)piperazin-1-yl)ethyl)morpholine]
7.21 | – | CC(c1ccc2c(c1)Nc1ccccc1S2)S(=O)(=O)N1CCN(CCO)CC1 (stereo not shown) [Compound C13, 2-(4-((1-(10H-phenothiazin-2-yl)ethyl)sulfonyl)piperazin-1-yl)-1-ethanol]
6.59 | – | CC(c1ccc2c(c1)Nc1ccccc1S2)S(=O)(=O)N1CC[C@@H](O)C1 (stereo partly shown) [Compound C14]
6.88 | – | CC(=O)N1CCN(S(=O)(=O)C(C)c2ccc3c(c2)Nc2ccccc2S3)CC1 (stereo not shown) [Compound C15, 1-(4-((1-(10H-phenothiazin-2-yl)ethyl)sulfonyl)piperazin-1-yl)-1-ethanone]
7.46 | – | CC(c1ccc2c(c1)Nc1ccccc1S2)S(=O)(=O)N1CCN(S(C)(=O)=O)CC1 (stereo not shown) [Compound C16, 2-(1-((4-(methylsulfonyl)piperazin-1-yl)sulfonyl)ethyl)-10H-phenothiazine]
8.30 | – | CC(c1ccc2c(c1)Nc1ccccc1S2)S(=O)(=O)N1CCN(c2ccncc2)CC1 (stereo not shown) [Compound C17, 2-(1-((4-(pyridin-4-yl)piperazin-1-yl)sulfonyl)ethyl)-10H-phenothiazine]
– | 6.89 | CC(c1ccc2c(c1)Nc1ccccc1S2)S(=O)(=O)N1CCN(C(=O)c2ccc3c(c2)OCCO3)CC1 (stereo not shown) [Compound C19, (4-((1-(10H-phenothiazin-2-yl)ethyl)sulfonyl)piperazin-1-yl)(2,3-dihydrobenzo[b][1,4]dioxane-6-yl)ketone]
7.51 | – | CC(c1ccc2c(c1)Nc1ccccc1S2)S(=O)(=O)N1CCSCC1 (stereo not shown) [Compound C20, 2-(1-(thiomorpholinesulfonyl)ethyl)-10H-phenothiazine]
6.21 | – | CCOC(=O)C1CCN(S(=O)(=O)C(C)c2ccc3c(c2)Nc2ccccc2S3)CC1 (stereo not shown) [Compound C23]
6.59 | – | CC(c1ccc2c(c1)Nc1ccccc1S2)S(=O)(=O)N1CCN(NC(=O)OC(C)(C)C)CC1 (stereo not shown) [Compound C27, t-butyl 4-((1-(10H-phenothiazin-2-yl)ethyl)sulfonyl)piperazin-1-carbamate]
7.02 | – | CC(c1ccc2c(c1)Nc1ccccc1S2)S(=O)(=O)N1CCC(O)(c2ccc(Cl)cc2)CC1 (stereo not shown) [Compound C30, 1-((1-(10H-phenothiazin-2-yl)ethyl)sulfonyl)-4-(4-chlorophenyl)-4-piperidinol]
6.40 | – | CC(c1ccc2c(c1)Nc1ccccc1S2)S(=O)(=O)N1CC[C@H](NC(=O)OC(C)(C)C)C1 (stereo partly drawn) [Compound C31, t-butyl ((3S)-1-((1-(10H-phenothiazin-2-yl)ethyl)sulfonyl)pyrrolin-3-yl)carbamate]
6.23 | – | CC(c1ccc2c(c1)Nc1ccccc1S2)S(=O)(=O)N1CCC[C@@H](NC(=O)OC(C)(C)C)C1 (stereo partly drawn) [Compound C32, t-butyl ((3R)-1-((1-(10H-phenothiazin-2-yl)ethyl)sulfonyl)piperidin-3-yl)carbamate]
– | 6.49 | CC(c1ccc2c(c1)Nc1ccccc1S2)S(=O)(=O)N1CC[C@H](CNC(=O)OC(C)(C)C)C1 (stereo partly drawn) [Compound C33, t-butyl (((3R)-1-((1-(10H-phenothiazin-2-yl)ethyl)sulfonyl)pyrrolin-3-yl)methyl)carbamate]
6.57 | – | CC(c1ccc2c(c1)Nc1ccccc1S2)S(=O)(=O)N1CCC(NC(=O)OC(C)(C)C)CC1 (stereo not shown) [Compound C37, t-butyl (1-((1-(10H-phenothiazin-2-yl)ethyl)sulfonyl)piperidin-4-yl)carbamate]
6.64 | – | CC(c1ccc2c(c1)Nc1ccccc1S2)S(=O)(=O)N1CCCC(CO)C1 (stereo not shown) [Compound C38, (1-((1-(10H-phenothiazin-2-yl)ethyl)sulfonyl)piperidin-3-yl)methanol]
6.61 | – | CCOC(=O)[C@@H]1CCCN(S(=O)(=O)C(C)c2ccc3c(c2)Nc2ccccc2S3)C1 (stereo partly drawn) [Compound C39, ethyl (3R)-1-((1-(10H-phenothiazin-2-yl)ethyl)sulfonyl)piperidin-3-formate]
6.85 | – | CC(c1ccc2c(c1)Nc1ccccc1S2)S(=O)(=O)N1CCCC(O)C1 (stereo not shown) [Compound C40, 1-((1-(10H-phenothiazin-2-yl)ethyl)sulfonyl)piperidin-3-ol]
6.93 | – | CC(c1ccc2c(c1)Nc1ccccc1S2)S(=O)(=O)N1CC[C@H](O)C1 (stereo partly shown) [Compound C41]
7.31 | – | CC(c1ccc2c(c1)Nc1ccccc1S2)S(=O)(=O)N1CCC(N2CCCCC2)CC1 (stereo not shown) [Compound C43, 2-(1-([1,4′-dipiperidin]-1′-ylsulfonyl)ethyl)-10H-phenothiazine]
6.37 | – | CC(c1ccc2c(c1)Nc1ccccc1S2)S(=O)(=O)N1C[C@@H](C)O[C@@H](C)C1 (stereo partly drawn) [Compound C44, (2S,6R)-4-((1-(10H-phenothiazin-2-yl)ethyl)sulfonyl)-2,6-dimethylmorpholine]
6.65 | – | CC(c1ccc2c(c1)Nc1ccccc1S2)S(=O)(=O)N1CCC(C(N)=O)CC1 (stereo not shown) [Compound C47, 1-((1-(10H-phenothiazin-2-yl)ethyl)sulfonyl)piperidin-4-formamide]
7.46 | – | CC1CN(S(=O)(=O)C(C)c2ccc3c(c2)Nc2ccccc2S3)CC(C)N1 (stereo not shown) [Compound C48, 2-(1-((3,5-dimethylpiperazin-1-yl)sulfonyl)ethyl)-10H-phenothiazine]
